Results from US20220289732A1, “HETEROCYCLIC WDR5 INHIBITORS AS ANTI-CANCER COMPOUNDS” (NOVARTIS AG, priority 2019, published 2022).
pIC50: −log10 of the molar value.

Columns and labels:
WDR5 = WDR5 (Homo sapiens, UniProt P61964); assay: WDR5 HTRF binding assay; details: read-out: (a) WDR5 HTRF Pep Val v.1[Inhibitor/IC50]Qualified AC50
Procedure, shortened: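 In this HTRF displacement format, biotinylated MLL1 WIN peptide (3762-3773, 20 nM) binds WDR5 (6 nM) in 25 mM Hepes pH 7.5 with 100 mM NaCl, 2 mM DTT and 0.1% BSA for 20 min at rt. Detection used streptavidin-APC/anti-His-Eu for 1 hr. IC50 came from dose-response fits of normalized signal; 15 nM biotin-PEG-His peptide served as counter assay.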

[1] = target: wild type MLL1 four-member complex (MLL1-4C) (Homo sapiens, UniProt P61964); assay: MLL1 LC-MS assay (SAH production); type: biochemical; details: read-out: (b) MLL LCMS Peptide Val.v.1 Qualified AC50
Procedure, shortened: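 SAH formation, measured by LC-MS/MS after a TFA quench containing d4-SAH, was normalised to no-compound and no-enzyme controls and fitted to a dose-response curve for IC50. Reactions ran 120 min at rt (pH 8.0 Tris buffer) with final 30 nM MLL1 four-member complex, 2.5 μM SAM and 10 μM biotinylated H3[1-21] peptide, after a 20-min enzyme/SAM-compound preincubation.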

MV4-11 cells = assay: MV4-11 6-day cell growth CTG (CellTiter-Glo) assay; type: cell-based; details: Homo sapiens, MV4-11, 144 h, 6 days, read-out: (c) MLL/WDR5 cell proliferation assay//MLL/WDR5 proliferation MV4:11 Qualified AC50
Procedure, shortened: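 IC50 comes from a dose-response fit of % inhibition relative to DMSO controls, with viable cells measured by CellTiter-Glo luminescence. Compounds were tested over 12 points (1:3, starting at 50 μM final) on MV4-11 cells plated at 300/well and grown 6 days.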

| Structure (SMILES) | pIC50 (WDR5) | AC50 [1] [nM] | AC50 (MV4-11 cells) [nM] |
| --- | --- | --- | --- |
| CNc1nccn1Cc1cc(CN2CC(F)C2)c2c(c1)C(=O)N(Cc1cc(OC)c(F)cn1)CC2 [Example 30, 2-((5-fluoro-4-methoxypyridin-2-yl)methyl)-5-((3-fluoroazetidin-1-yl)methyl)-7-((2-(methylamino)-1H-imidazol-1-yl)methyl)-3,4-dihydroisoquinolin-1(2H)-one] | 6.00 to 8.00 | 10 to 1000 | 10 to 1000 |
| CCOc1cc([C@H](C)N2CCc3c(CN(C)C)cc(Cn4ccnc4NC)cc3C2=O)cnc1C#N [Example 32, (S)-5-(1-(5-((dimethylamino)methyl)-7-((2-(methylamino)-1H-imidazol-1-yl)methyl)-1-oxo-3,4-dihydroisoquinolin-2(1H)-yl)ethyl)-3-ethoxypicolinonitrile] | 6.00 to 8.00 | 10 to 1000 | 10 to 1000 |
| CNc1nccn1Cc1cc(CN2CC(F)C2)c2c(c1)C(=O)N(Cc1cnc(F)c(OC)c1)CC2 [Example 33, 2-((6-fluoro-5-methoxypyridin-3-yl)methyl)-5-((3-fluoroazetidin-1-yl)methyl)-7-((2-(methylamino)-1H-imidazol-1-yl)methyl)-3,4-dihydroisoquinolin-1(2H)-one] | 6.00 to 8.00 | 10 to 1000 | 10 to 1000 |
| CNc1nccn1Cc1cc(CN2CC(F)(F)C2)c2c(c1)C(=O)N([C@@H](C)c1cnc(F)c(OC)c1)CC2 [Example 34, (S)-5-((3,3-difluoroazetidin-1-yl)methyl)-2-(1-(6-fluoro-5-methoxypyridin-3-yl)ethyl)-7-((2-(methylamino)-1H-imidazol-1-yl)methyl)-3,4-dihydroisoquinolin-1(2H)-one] | 6.00 to 8.00 | 10 to 1000 | 10 to 1000 |
| CNc1nccn1Cc1cc(CN2CC(F)(F)C2)c2c(c1)C(=O)N(Cc1cc(OC)c(F)cn1)CC2 [Example 38, 5-((3,3-difluoroazetidin-1-yl)methyl)-2-((5-fluoro-4-methoxypyridin-2-yl)methyl)-7-((2-(methylamino)-1H-imidazol-1-yl)methyl)-3,4-dihydroisoquinolin-1(2H)-one] | 6.00 to 8.00 | 10 to 1000 | 10 to 1000 |
| CCOc1cc([C@H](C)N2CCc3c(CN4CC(F)(F)C4)cc(Cn4ccnc4NC)cc3C2=O)ncc1C#N [Example 40, (S)-6-(1-(5-((3,3-difluoroazetidin-1-yl)methyl)-7-((2-(methylamino)-1H-imidazol-1-yl)methyl)-1-oxo-3,4-dihydroisoquinolin-2(1H)-yl)ethyl)-4-ethoxynicotinonitrile] | 6.00 to 8.00 | 10 to 1000 | 10 to 1000 |
| CCOc1cc([C@H](C)N2CCc3c(CN4CC(F)C4)cc(Cn4ccnc4NC)cc3C2=O)cnc1C#N [Example 41, (S)-3-ethoxy-5-(1-(5-((3-fluoroazetidin-1-yl)methyl)-7-((2-(methylamino)-1H-imidazol-1-yl)methyl)-1-oxo-3,4-dihydroisoquinolin-2(1H)-yl)ethyl)picolinonitrile] | 6.00 to 8.00 | 10 to 1000 | 10 to 1000 |
| CCOc1cc(CN2CCc3c(CN4CC(F)(F)C4)cc(Cn4ccnc4NC)cc3C2=O)cnc1C#N [Example 46, 5-((5((3,3-difluoroazetidin-1-yl)methyl)-7-((2-(methylamino)-1H-imidazol-1-yl)methyl)-1-oxo-3,4-dihydroisoquinolin-2(1H)-yl)methyl)-3-ethoxypicolinonitrile] | 6.00 to 8.00 | 10 to 1000 | 10 to 1000 |

More lines, main results first:

| pIC50 (WDR5) | AC50 [1] [nM] | Structure (SMILES) | AC50 (MV4-11 cells) [nM] |
| --- | --- | --- | --- |
| 6.00 to 8.00 | 10 to 1000 | CNc1nccn1Cc1cc(CN2CC(OC)C2)c2c(c1)C(=O)N([C@@H](C)c1cc(OC)c(F)cn1)CC2 [Example 31, (S)-2-(1-(5-fluoro-4-methoxypyridin-2-yl)ethyl)-5-((3-methoxyazetidin-1-yl)methyl)-7-((2-(methylamino)-1H-imidazol-1-yl)methyl)-3,4-dihydroisoquinolin-1(2H)-one] | 10 to 1000 |
| 6.00 to 8.00 | 10 to 1000 | CNc1nccn1Cc1cc(CN(C)CC(F)F)c2c(c1)C(=O)N([C@@H](C)c1cc(OC)c(F)cn1)CC2 [Example 35, (S)-5-(((2,2-difluoroethyl)(methyl)amino)methyl)-2-(1-(5-fluoro-4-methoxypyridin-2-yl)ethyl)-7-((2-(methylamino)-1H-imidazol-1-yl)methyl)-3,4-dihydroisoquinolin-1(2H)-one] | 10 to 1000 |
| 6.00 to 8.00 | 10 to 1000 | CNc1nccn1Cc1cc(CN2CC[C@@H](OC)C2)c2c(c1)C(=O)N([C@@H](C)c1cc(OC)c(F)cn1)CC2 [Example 36, 2-((S)-1-(5-fluoro-4-methoxypyridin-2-yl)ethyl)-5-(((R)-3-methoxypyrrolidin-1-yl)methyl)-7-((2-(methylamino)-1H-imidazol-1-yl)methyl)-3,4-dihydroisoquinolin-1(2H)-one] | 10 to 1000 |
| 6.00 to 8.00 | 10 to 1000 | CCOc1cc([C@H](C)N2CCc3c(CN4CC[C@H](F)C4)cc(Cn4ccnc4NC)cc3C2=O)ncc1F [Example 37, 2-((S)-1-(4-ethoxy-5-fluoropyridin-2-yl)ethyl)-5-(((S)-3-fluoropyrrolidin-1-yl)methyl)-7-((2-(methylamino)-1H-imidazol-1-yl)methyl)-3,4-dihydroisoquinolin-1(2H)-one] | 10 to 1000 |
| 6.00 to 8.00 | 10 to 1000 | CCOc1cc([C@H](C)N2CCc3c(CN4CC(F)C4)cc(Cn4ccnc4NC)cc3C2=O)ncc1F [Example 39, (S)-2-(1-(4-ethoxy-5-fluoropyridin-2-yl)ethyl)-5-((3-fluoroazetidin-1-yl)methyl)-7-((2-(methylamino)-1H-imidazol-1-yl)methyl)-3,4-dihydroisoquinolin-1(2H)-one] | 10 to 1000 |
| 6.00 to 8.00 | 10 to 1000 | CNc1nccn1Cc1cc(CN2CC(F)C2)c2c(c1)C(=O)N([C@@H](C)c1cc(OC)c(F)cn1)CC2 [Example 42] | 10 to 1000 |
| 6.00 to 8.00 | 10 to 1000 | CNc1nccn1Cc1cc(CN2CC(F)C2)c2c(c1)C(=O)N([C@@H](C)c1cnc(F)c(OC)c1)CC2 [Example 43, (S)-2-(1-(6-fluoro-5-methoxypyridin-3-yl)ethyl)-5-((3-fluoroazetidin-1-yl)methyl)-7-((2-(methylamino)-1H-imidazol-1-yl)methyl)-3,4-dihydroisoquinolin-1(2H)-one] | 10 to 1000 |
| 6.00 to 8.00 | 10 to 1000 | CNc1nccn1Cc1cc(CN2CC[C@H](F)C2)c2c(c1)C(=O)N([C@@H](C)c1cc(OC)c(F)cn1)CC2 [Example 44, 2-((S)-1-(5-fluoro-4-methoxypyridin-2-yl)ethyl)-5-(((S)-3-fluoropyrrolidin-1-yl)methyl)-7-((2-(methylamino)-1H-imidazol-1-yl)methyl)-3,4-dihydroisoquinolin-1(2H)-one] | 10 to 1000 |
| 6.00 to 8.00 | 10 to 1000 | CNc1nccn1Cc1cc(CN(C)C)c2c(c1)C(=O)N([C@@H](C)c1cc(OC)c(C#N)cn1)CC2 [Example 45, (S)-6-(1-(5-((dimethylamino)methyl)-7-((2-(methylamino)-1H-imidazol-1-yl)methyl)-1-oxo-3,4-dihydroisoquinolin-2(1H)-yl)ethyl)-4-methoxynicotinonitrile] | 10 to 1000 |
